# Results from patent US10864225B2, “Treatment of metabolic disorders in equine animals” (Boehringer Ingelheim Vetmedica GmbH, priority 2013, dated 2020).
smiles,measurement,setting,value
N#Cc1ccc([C@@H]2O[C@H](CO)[C@@H](O)[C@H](O)[C@H]2O)cc1Cc1ccc(C2CC2)cc1.O=C(O)[C@@H]1CCCN1,mechanical stability of the crystals,allows grinding of the crystals,high mechanical stability
same,physical and chemical stability,under various environmental conditions and during the production of a medicament,high physical and chemical stability
